From publication PMC13303826, “Nicotinonitrile based dual inhibitors of tubulin and topoisomerase II exhibit potent anticancer activity” (Scientific Reports, 2026)
Like-named read-outs stand apart in the source and are kept apart here.

Experiments:
NCI = test system: NCI; parameters: method as in PMID 8392342; settings: Fig. 1B; cited from earlier work
beta-tubulin = assay: Inhibition of tubulin polymerization in MCF-7 cells (beta-tubulin SimpleStep ELISA); assay type: cell-based, human; settings: MCF7 cells, concentration not given
Excerpt: Beta-tubulin in vitro simple step ELISA® (Enzyme-Linked Immunosorbent Assay) kit is designed for quantitative measurement of beta-tubulin protein in human cell and tissue homogenate extract samples.
The SimpleStep ELISA® employs an affinity tag labeled capture antibody and a reporter conjugated detector antibody which immunocapture the sample analyte in solution. This entire complex (capture antibody/analyte/detector antibody) is in turn immobilized via immunoaffinity of an anti-tag antibody coating the well. To perform the assay, samples or standards are added to the wells, followed by the antibody mix. After incubation, the wells are washed to remove unbound material. TMB development solution is added and during incubation is catalyzed by horseradish peroxidase (HRP), generating blue coloration. This reaction is then stopped by addition of stop solution completing any color change from blue to yellow. Signal is generated proportionally to the amount of bound analyte and the intensity is measured at 450 nm. Optionally, instead of the endpoint reading, development of TMB can be recorded kinetically at 600 nm. The concentration of beta-tubulin protein in the samples is determined by comparing the optical density (OD) of the samples to the standard curve. Each experiment was repeated two times (Table 2).

MDA-MB-231 = test system: MDA-MB-231; parameters: method as in ref 5, 7 (CA-4), ref 13-15 (VII); settings: Fig. 1; 7 (CA-4), ref 13-15 (VII); cited from earlier work
HeLa = settings: Fig. 1, cited from earlier work
MCF7 cells [1] = assay: LDH release cytotoxicity assay, MCF7; assay type: cell-based; settings: Homo sapiens, 48 h, mean ± SD, read-out: In vitro cytotoxicity IC50 µM ± SD, MCF7
Protocol: (§1) HepG2 (Human liver carcinoma), HCT116 (human colorectal carcinoma), MCF7 (human breast adenocarcinoma), and the normal human skin fibroblast (BJ-1) cell lines were purchased from the american type culture collection (Rockville, MD, USA) and maintained in RPMI-1640 medium which was supplemented with 10% heat-inactivated FBS, 100U/ml penicillin and 100U/ml streptomycin. The cells were grown at 37 °C in a humidified atmosphere of 5% CO2. All experiments were conducted thrice in triplicate (n = 3). All the values were represented as means ± SD. Significant differences between the means of parameters as well as IC50s were determined by probit analysis using SPSS software program (SPSS Inc., Chicago, IL).
(§2) To determine the effect of each synthesized compound on membrane permeability in HepG2, MCF-7 and HCT116 cancer cell lines as well as BJ-1 normal cell line, a lactate dehydrogenase (LDH) release assay was used[29]–[33]. The cells were seeded in 24-well culture plates at a density of 1 × 10^4 cells/well in 500 µL volume and allowed to grow for 18 h before treatment. After treatment with a series of different concentrations of each compound or DOX (positive control), the plates were incubated for 48 h. Then, the supernatant (40 µL) was transferred to a new 96 well to determine LDH release and 6% triton X-100 (40 µL) was added to the original plate for determination of total LDH. An aliquot of 0.1 M potassium phosphate buffer (100 µL, pH 7.5) containing 4.6 mM pyruvic acid was mixed to the supernatant using repeated pipetting. Then, 0.1 M potassium phosphate buffer (100 µL, pH 7.5) containing 0.4 mg/mL reduced β-NADH was added to the wells. The kinetic changes were read for 1 min using ELISA microplate reader in absorbance at wavelength 340 nm. This procedure was repeated with 40 µL of the total cell lysate to determine total LDH. The percentage of LDH release was determined by dividing the LDH released into the media by the total LDH following cell lysis in the same well. The cell Passage numbers for MCF 7 = P13, Hep G2 = P15, HCT 116 = P 9.
(§3) All experiments were conducted in triplicate (n = 3). All the values were represented as mean ± SD. Significant differences between the means of parameters as well as IC50s were determined by probit analysis using SPSS software program (SPSS Inc., Chicago, IL).

HepG2 cells = assay: LDH release cytotoxicity assay, HepG2; assay type: cell-based; settings: Homo sapiens, 48 h, mean ± SD, read-out: In vitro cytotoxicity IC50 µM ± SD, HepG2
Protocol: as §1, §2, §3

HCT116 cells = assay: LDH release cytotoxicity assay, HCT116; assay type: cell-based; settings: Homo sapiens, HCT-116, 48 h, mean ± SD, read-out: In vitro cytotoxicity IC50 µM ± SD, HCT116
Protocol: as §1, §2, §3

BJ1 normal cells = assay: LDH release cytotoxicity assay, normal skin fibroblasts BJ1; assay type: cell-based, human; settings: non-tumor BJ1 fibroblasts
Protocol: as §1, §2, §3

Topo II = assay: Inhibition of topoisomerase II in MCF-7 cells (TOP2B sandwich ELISA); assay type: cell-based, human; settings: MCF7 cells, concentration not given
Protocol: Mouse TOP2B/Topoisomerase II Beta ELISAKit (Sandwich ELISA) is designed for the quantitative measurement of Topo II enzyme.
This assay is based on the sandwich ELISA principle. Each well of the supplied microtiter plate has been pre-coated with a target specific capture antibody. Standards or samples are added to the wells, and the target antigen binds to the capture antibody. Unbound standard or sample is washed away. A biotin-conjugated detection antibody is then added which binds to the captured antigen. Unbound detection antibody is washed away. An avidin-horseradish peroxidase (HRP) conjugate is then added which binds to the biotin. Unbound avidin-HRP conjugate is washed away. A TMB substrate is then added which reacts with the HRP enzyme resulting in color development. A sulfuric acid stop solution is added to terminate color development reaction and then the optical density (OD) of the well is measured at a wavelength of 450 nm ± 2 nm. An OD standard curve is generated using known antigen concentrations; the OD of an unknown sample can then be compared to the standard curve to determine its antigen concentration. Each experiment was repeated two times (Table 3).

MCF7 cells [2] = assay: Propidium iodide flow cytometry cell cycle analysis; assay type: cell-based, human; settings: compound at 2.4 µM
Protocol: Propidium iodide flow cytometry kit (ab139418) is designed for quantitative DNA content analysis in tissue culture cells, so we performed propidium iodide cell cycle analysis for active compounds 20 and 26 using MCF-7 cell line. Propidium iodide staining of DNA is the classic means of cell cycle analysis. The staining procedure takes less than 1 h of total processing time and cells fixed in ethanol are stable for at least several weeks at 4 °C.
Propidium iodide is a fluorescent molecule that binds nucleic acid with little or no sequence preference. Because propidium iodide binds RNA as well as DNA, RNaseA (ribonuclease A) is included in this kit to digest cellular RNA and thus decrease background RNA staining from the experiment. Since propidium iodide is membrane impermeant, ethanol is used to both fix and permeabilize cells. A flow cytometer is required for quantitative analysis. First, fix MCF-7 cells in 66% ethanol, store at + 4 °C for 2 h to 4 weeks and rehydrate cells in PBS. Finally, stain cells with propidium iodide then add RNase for 30 min. Collect propidium iodide fluorescence intensity on FL2 of a flow cytometer and […] laser excitation. A useful way to display propidium iodide data is on a histogram with the cell count on the y-axis and the propidium iodide fluorescence intensity on the x-axis.

MCF7 cells [3] = assay: Apoptosis and necrosis analysis by annexin V-FITC/PI staining; assay type: cell-based, human; settings: at IC50 (2.4 µM), 48 h
Excerpt: Annexin V apoptosis detection kit is used for analyzing apoptosis and necrosis for active compounds 20 and 26 in MCF7 cells using annexin V-FITC/PI dual staining followed by flow cytometry quantification and fluorescence microscopy detection.
Detection is based on the observation that soon after initiating apoptosis, cells translocate the membrane phosphatidylserine (PS) from the inner face of the plasma membrane to the cell surface. Once on the cell surface, PS can be easily detected by staining with a fluorescent conjugate of annexin V, a protein that has a high affinity for PS. Detection can be analyzed by flow cytometry or/and by fluorescence microscopy. The kit can differentiate between apoptosis and necrosis when performing both annexin V-FITC and PI staining. Assay is summarized as first, induce apoptosis by desired method, collect 1–5 × 10^5 cells by centrifugation, resuspend cells in 500 µl of 1× binding buffer, add 5 µl of annexin V-FITC and 5 µl of propidium iodide and finally incubate at room temperature for 5 min in the dark. After that, analyze annexin V-FITC binding by flow cytometry (Ex = 488 nm; Em = 530 nm) using FITC signal detector (usually FL1) and PI staining by the phycoerythrin emission signal detector (usually FL2) then, observe the cells under a fluorescence microscope using a dual filter set for FITC & rhodamine. Cells that have bound annexin V-FITC will show green staining in the plasma membrane. Cells that have lost membrane integrity will show red staining (PI) throughout the nucleus and a halo of green staining (FITC) on the cell surface.

HepG2 = test system: HepG2; parameters: method as in PMID 31278032; settings: Fig. 1A; cited from earlier work
colon-26 = test system: colon-26; parameters: method as in PMID 24669888, PMID 30111667, PMID 9873694; settings: Fig. 1C; cited from earlier work
A549 = test system: A549; parameters: method as in PMID 33465263; settings: Fig. 1A; cited from earlier work
MCF-7 = test system: MCF-7; parameters: method as in ref 8 (podophyllotoxin), ref 13-15 (VIII); settings: Fig. 1; ref 8 (podophyllotoxin), ref 13-15 (VIII); cited from earlier work
HL-60 = test system: HL-60; parameters: method as in ref 4, 12 (YCH337), ref 13-15 (VIII); settings: Fig. 1; 12 (YCH337), ref 13-15 (VIII); cited from earlier work
HT-29 = test system: HT-29; parameters: method as in PMID 25840421, PMID 39533473; settings: Fig. 1B; cited from earlier work
[4] = ref 10 (etoposide), 12 (YCH337)

## COc1cc([C@@H]2c3[nH]c4ccccc4c3C[C@H]3COC(=O)N32)cc(OC)c1O [Azatoxin (NSC 640737), azatoxin]
NCI
  IC50: 130 nM

## COc1ccc(/C=C\c2cc(OC)c(OC)c(OC)c2)cc1O [CA4, Combretastatin A4]
beta-tubulin
  tubulin polymerization % inhibition: 72.1%
MDA-MB-231
  IC50: 2.8 nM
HeLa; 7 (CA-4), ref 13-15 (VII)
  IC50: 1 nM

## COc1cc(-c2cc(-c3cc(OC)c(OC)c(OC)c3)c(C#N)c(Cl)n2)cc(OC)c1OC [Compound 20, 2-Chloro-4,6-bis(3,4,5-trimethoxyphenyl)nicotinonitrile]
MCF7 cells [1]
  IC50: 2.4 ± 0.1 µM
HepG2 cells
  IC50: 6.1 ± 0.5 µM
HCT116 cells
  IC50: 34.4 ± 3.2 µM
BJ1 normal cells
  Cytotoxicity / selectivity toward BJ1 normal cells (in words): good selectivity
beta-tubulin
  tubulin polymerization % inhibition: 74.7%
Topo II
  Topo II % inhibition: 70.3%
MCF7 cells [2]
  %G0-G1: 39.69%
  %G2/M: 43.3%
  %S: 17.01%
MCF7 cells [3]
  Apoptosis Early: 11.91%
  Apoptosis Late: 22.63%
  Apoptosis Total: 38.41%
  Necrosis: 3.87%

## COc1ccc(-c2cc(-c3cc(OC)c(OC)c(OC)c3)c(C#N)c3nnnn23)cc1 [Compound 26, 5-(4-methoxyphenyl)-7-(3,4,5-trimethoxyphenyl)tetrazolo[1,5-a]pyridine-8-carbonitrile]
MCF7 cells [1]
  IC50: 2.4 ± 0.1 µM
HepG2 cells
  IC50: 6.3 ± 0.3 µM
HCT116 cells
  IC50: 63.4 ± 5.3 µM
BJ1 normal cells
  Cytotoxicity / selectivity toward BJ1 normal cells (in words): good selectivity
beta-tubulin
  tubulin polymerization % inhibition: 75%
Topo II
  Topo II % inhibition: 43.7%
MCF7 cells [2]
  %G0-G1: 35.64%
  %G2/M: 50.69%
  %S: 13.67%
MCF7 cells [3]
  Apoptosis Early: 7.58%
  Apoptosis Late: 28.16%
  Apoptosis Total: 41.26%
  Necrosis: 5.51%

## COc1ccc(-c2cc(-c3cc(OC)cc(OC)c3)c(C#N)c(N=P(c3ccccc3)(c3ccccc3)c3ccccc3)n2)cc1 [Compound 38, 4-(3,5-Dimethoxyphenyl)-6-(4-methoxyphenyl)-2-((triphenyl-λ^5-phosphaneylidene)amino)-nicotinonitrile]
MCF7 cells [1]
  IC50: 2.5 ± 0.1 µM
HepG2 cells
  IC50: 12.2 ± 1.1 µM
HCT116 cells
  IC50: 31.5 ± 3.2 µM
BJ1 normal cells
  Cytotoxicity / selectivity toward BJ1 normal cells (in words): good selectivity
beta-tubulin
  tubulin polymerization % inhibition: 71.7%

## Cc1cc(-c2ccco2)c(C#N)c(N=P(c2ccccc2)(c2ccccc2)c2ccccc2)n1 [Compound 41, 4-(Furan-2-yl)-6-methyl-2-((triphenyl-λ^5-phosphaneylidene)amino)nicotinonitrile]
MCF7 cells [1]
  IC50: 2.4 ± 0.1 µM
HepG2 cells
  IC50: 27.3 ± 2.3 µM
HCT116 cells
  IC50: 38.2 ± 2.8 µM
BJ1 normal cells
  Cytotoxicity / selectivity toward BJ1 normal cells (in words): good selectivity
beta-tubulin
  tubulin polymerization % inhibition: 61.2%

## COc1cc([C@@H]2c3cc4c(cc3[C@@H](O[C@@H]3O[C@@H]5CO[C@@H](C)O[C@H]5[C@H](O)[C@H]3O)[C@H]3COC(=O)[C@H]23)OCO4)cc(OC)c1O [Etoposide]
HeLa; [4]
  IC50: 12200 nM
HepG2
  IC50: 10500 nM

## COc1ccc(-c2nnnn2-c2cc(OC)c(OC)c(OC)c2)cc1N [IX]
colon-26
  IC50: 7.2 nM

## COc1cc([C@@H]2c3cc4c(cc3[C@H](O)[C@H]3COC(=O)[C@H]23)OCO4)cc(OC)c1OC [Podophyllotoxin]
A549
  IC50: 1900 nM
MCF-7
  IC50: 2210 nM

## COc1ccc(-c2cc(-c3cc(OC)c(OC)c(OC)c3)c(C#N)c(=O)[nH]2)cc1 [VIII]
MCF-7
  IC50: 180 nM
HL-60
  IC50: 470 nM

## COc1ccc(-c2cccc(-c3ccc(OC)cc3OC)n2)cc1 [VII]
MDA-MB-231
  IC50: 3.1 nM
HeLa; 7 (CA-4), ref 13-15 (VII)
  IC50: 3.8 nM

## COC(=O)C1C(c2cc(OC)c(OC)c(OC)c2)c2cc3c(cc2C(n2cc(-c4ccc(F)cc4)nn2)C1C=O)OCO3 (stereo not shown) [VI]
HT-29
  IC50: 40 nM

## COc1ccc(O)c(C(=O)c2cnc3[nH]c4ccccc4c3c2)c1 [YCH337]
HeLa; [4]
  IC50: 60 nM
HL-60
  IC50: 210 nM
